Data reported in ChEMBL document CHEMBL1158870, “Antitumor agents. 180. Chemical Studies and cytotoxic evaluation of cumingianosides and cumindysoside A, antileukemic triterpene glucosides with a 14,18-cycloapotirucallane skeleton” (1997).

Columns and labels:
CCRF-CEM = test: Cytotoxicity against human CCRF-CEM cells by SRB assay; type: functional
[1] = Cytotoxicity against human HL60(TB) cells by SRB assay; type: functional, HL-60(TB); settings: HL-60
K562 = test: Cytotoxicity against human K562 cells by SRB assay; type: functional
MOLT-4 = test: Cytotoxicity against human MOLT4 cells by SRB assay; type: functional
RPMI-8226 = test: Cytotoxicity against human RPMI8226 cells by SRB assay; type: functional
SR = test: Cytotoxicity against human SR cells by SRB assay; type: functional
A549 = test: Cytotoxicity against human A549 cells by SRB assay; type: functional
EKVX = test: Cytotoxicity against human EKVX cells by SRB assay; type: functional
HOP-62 = test: Cytotoxicity against human HOP62 cells by SRB assay; type: functional
HOP-92 = test: Cytotoxicity against human HOP92 cells by SRB assay; type: functional
NCI-H226 = test: Cytotoxicity against human NCI-H226 cells by SRB assay; type: functional
NCI-H23 = test: Cytotoxicity against human NCI-H23 cells by SRB assay; type: functional
NCI-H322M = test: Cytotoxicity against human NCI-H322M cells by SRB assay; type: functional
NCI-H460 = test: Cytotoxicity against human NCI-H460 cells by SRB assay; type: functional
NCI-H522 = test: Cytotoxicity against human NCI-H522 cells by SRB assay; type: functional
COLO 205 = test: Cytotoxicity against human COLO205 cells by SRB assay; type: functional
HCC 2998 = test: Cytotoxicity against human HCC2998 cells by SRB assay; type: functional
HCT-116 = test: Cytotoxicity against human HCT116 cells by SRB assay; type: functional
HCT-15 = test: Cytotoxicity against human HCT15 cells by SRB assay; type: functional
HT-29 = test: Cytotoxicity against human HT29 cells by SRB assay; type: functional
KM12 = test: Cytotoxicity against human KM12 cells by SRB assay; type: functional
SW-620 = test: Cytotoxicity against human SW620 cells by SRB assay; type: functional
SF-268 = test: Cytotoxicity against human SF268 cells by SRB assay; type: functional
SF-295 = test: Cytotoxicity against human SF295 cells by SRB assay; type: functional
SNB-19 = test: Cytotoxicity against human SNB19 cells by SRB assay; type: functional
SNB-75 = test: Cytotoxicity against human SNB75 cells by SRB assay; type: functional
U-251 = test: Cytotoxicity against human U251 cells by SRB assay; type: functional
LOX IMVI = test: Cytotoxicity against human LOXIMVI cells by SRB assay; type: functional
Malme-3M = test: Cytotoxicity against human MALME-3M cells by SRB assay; type: functional
M14 = test: Cytotoxicity against human M14 cells by SRB assay; type: functional
SK-MEL-2 = test: Cytotoxicity against human SK-MEL-2 cells by SRB assay; type: functional
SK-MEL-28 = test: Cytotoxicity against human SK-MEL-28 cells by SRB assay; type: functional
SK-MEL-5 = test: Cytotoxicity against human SK-MEL-5 cells by SRB assay; type: functional
UACC-257 = test: Cytotoxicity against human UACC257 cells by SRB assay; type: functional
UACC-62 = test: Cytotoxicity against human UACC62 cells by SRB assay; type: functional
IGROV-1 = test: Cytotoxicity against human IGROV1 cells by SRB assay; type: functional
OVCAR-3 = test: Cytotoxicity against human OVCAR-3 cells by SRB assay; type: functional
OVCAR-4 = test: Cytotoxicity against human OVCAR4 cells by SRB assay; type: functional
OVCAR-5 = test: Cytotoxicity against human OVCAR5 cells by SRB assay; type: functional
OVCAR-8 = test: Cytotoxicity against human OVCAR8 cells by SRB assay; type: functional
SK-OV-3 = test: Cytotoxicity against human SKOV3 cells by SRB assay; type: functional
[2] = Cytotoxicity against human 786-O cells by SRB assay; type: functional; settings: 786-0
A498 = test: Cytotoxicity against human A498 cells by SRB assay; type: functional
ACHN = test: Cytotoxicity against human ACHN cells by SRB assay; type: functional
CAKI-1 = test: Cytotoxicity against human Caki1 cells by SRB assay; type: functional
RXF 393 = test: Cytotoxicity against human RXF393 cells by SRB assay; type: functional
SN12C = test: Cytotoxicity against human SN12C cells by SRB assay; type: functional
UO-31 = test: Cytotoxicity against human UO31 cells by SRB assay; type: functional
PC-3 = test: Cytotoxicity against human PC3 cells by SRB assay; type: functional
DU-145 = test: Cytotoxicity against human DU145 cells by SRB assay; type: functional
MCF7 = test: Cytotoxicity against human MCF7 cells by SRB assay; type: functional
[3] = Cytotoxicity against human MCF7/ADR cells by SRB assay; type: functional; settings: NCI/ADR-RES
MDA-MB-231 = test: Cytotoxicity against human MDA-MB-231 cells by SRB assay; type: functional
[4] = Cytotoxicity against human Hs 578T cells by SRB assay; type: functional
MDA-MB-435 = test: Cytotoxicity against human MDA-MB-435 cells by SRB assay; type: functional
MDA-N = test: Cytotoxicity against human MDA-N cells by SRB assay; type: functional
BT-549 = test: Cytotoxicity against human BT549 cells by SRB assay; type: functional
T47D = test: Cytotoxicity against human T47D cells by SRB assay; type: functional
Leukemia cell = test: Cytotoxicity against human Leukemia cells by SRB assay; type: functional
NSCLC = test: Cytotoxicity against human NSCLC cells by SRB assay; type: functional
[5] = Cytotoxicity against human Colon cancer cells by SRB assay; type: functional; settings: Cancer cell lines
[6] = Cytotoxicity against human CNS cancer cells by SRB assay; type: functional; settings: Cancer cell lines
[7] = Cytotoxicity against human melanoma cells by SRB assay; type: functional; settings: Melanoma cell
[8] = Cytotoxicity against human ovarian cancer cells by SRB assay; type: functional; settings: Cancer cell lines
[9] = Cytotoxicity against human prostate cancer cells by SRB assay; type: functional; settings: Cancer cell lines
[10] = Cytotoxicity against human breast cancer cells by SRB assay; type: functional; settings: Cancer cell lines
[11] = Cytotoxicity against human renal cancer cells by SRB assay; type: functional; settings: Cancer cell lines

CC(=O)OC[C@H]1O[C@@H](O[C@@H]2C[C@H]3C(C)(C)[C@H](OC(C)=O)CC[C@]3(C)[C@H]3CC[C@@]45C[C@H](O)C[C@H](C)[C@@H]4CC=C5[C@@]32C)[C@H](O)[C@@H](O)[C@@H]1O
GI50 (CCRF-CEM): 2.14 µM | GI50 [1]: 2.09 µM | GI50 (K562): 2.95 µM | GI50 (MOLT-4): 2.14 µM | GI50 (RPMI-8226): 2.82 µM | GI50 (SR): 1.82 µM | GI50 (A549): 4.79 µM | GI50 (EKVX): 7.08 µM | GI50 (HOP-62): 11.2 µM | GI50 (HOP-92): 4.9 µM | GI50 (NCI-H226): 4.9 µM | GI50 (NCI-H23): 3.89 µM | GI50 (NCI-H322M): 6.61 µM | GI50 (NCI-H460): 3.31 µM | GI50 (NCI-H522): 3.09 µM | GI50 (COLO 205): 1.82 µM | TGI (COLO 205): 3.2 µM | GI50 (HCC 2998): 2.09 µM | TGI (HCC 2998): 3.8 µM | GI50 (HCT-116): 1.78 µM | TGI (HCT-116): 3.5 µM | GI50 (HCT-15): 8.91 µM | TGI (HCT-15): 22.3 µM | GI50 (HT-29): 1.7 µM | TGI (HT-29): 3.3 µM | GI50 (KM12): 2.4 µM | TGI (KM12): 7.6 µM | GI50 (SW-620): 4.57 µM | TGI (SW-620): 18.1 µM | GI50 (SF-268): 4.07 µM | GI50 (SF-295): 3.89 µM | GI50 (SNB-19): 3.89 µM | GI50 (SNB-75): 3.72 µM | GI50 (U-251): 3.39 µM | GI50 (LOX IMVI): 1.82 µM | GI50 (Malme-3M): 9.33 µM | GI50 (M14): 3.89 µM | GI50 (SK-MEL-2): 2.45 µM | GI50 (SK-MEL-28): 8.32 µM | GI50 (SK-MEL-5): 3.89 µM | GI50 (UACC-257): 3.39 µM | GI50 (UACC-62): 5.25 µM | GI50 (IGROV-1): 3.16 µM | GI50 (OVCAR-3): 3.89 µM | GI50 (OVCAR-4): 4.37 µM | GI50 (OVCAR-5): 2.34 µM | GI50 (OVCAR-8): 4.47 µM | GI50 (SK-OV-3): 6.03 µM | GI50 [2]: 4.37 µM | GI50 (A498): 14.1 µM | GI50 (ACHN): 5.13 µM | GI50 (CAKI-1): 9.55 µM | GI50 (RXF 393): 2.63 µM | GI50 (SN12C): 3.98 µM | GI50 (UO-31): 14.8 µM | GI50 (PC-3): 3.16 µM | GI50 (DU-145): 10.5 µM | GI50 (MCF7): 4.47 µM | GI50 [3]: 15.1 µM | GI50 (MDA-MB-231): 2.04 µM | GI50 [4]: 4.07 µM | GI50 (MDA-MB-435): 3.72 µM | GI50 (MDA-N): 4.27 µM | GI50 (BT-549): 11 µM | GI50 (T47D): 4.37 µM | TGI (Leukemia cell): 7 µM | TGI (NSCLC): 18.1 µM | TGI [5]: 8.8 µM | TGI [6]: 15 µM | TGI [7]: 14.4 µM | TGI [8]: 13.5 µM | TGI [9]: 16.7 µM | TGI [10]: 17.9 µM | TGI [11]: 18.8 µM

CC(=O)OC[C@H]1O[C@@H](O[C@@H]2C[C@H]3C(C)(C)[C@H](OC(C)=O)CC[C@]3(C)[C@H]3CCC4=C([C@@H](C)C[C@@H](O)[C@H](O)C(C)(C)O)CC[C@@]4(C)[C@@]32C)[C@H](O)[C@@H](O)[C@@H]1O
GI50 (CCRF-CEM): 15.8 µM | GI50 [1]: 12.9 µM | GI50 (K562): 12.6 µM | GI50 (MOLT-4): 13.2 µM | GI50 (RPMI-8226): 10.5 µM | GI50 (SR): 12.3 µM | GI50 (A549): 19.1 µM | GI50 (EKVX): 17 µM | GI50 (HOP-62): 16.2 µM | GI50 (HOP-92): 14.5 µM | GI50 (NCI-H226): 17.4 µM | GI50 (NCI-H23): 16.6 µM | GI50 (NCI-H322M): 17.4 µM | GI50 (NCI-H460): 15.8 µM | GI50 (NCI-H522): 13.2 µM | GI50 (COLO 205): 15.8 µM | TGI (COLO 205): 30.2 µM | GI50 (HCC 2998): 12 µM | TGI (HCC 2998): 25.2 µM | GI50 (HCT-116): 14.1 µM | TGI (HCT-116): 27.2 µM | GI50 (HCT-15): 17 µM | TGI (HCT-15): 30.8 µM | GI50 (HT-29): 16.6 µM | TGI (HT-29): 30.1 µM | GI50 (KM12): 22.4 µM | TGI (KM12): 37.1 µM | GI50 (SW-620): 17 µM | TGI (SW-620): 30.7 µM | GI50 (SF-268): 16.6 µM | GI50 (SF-295): 17.4 µM | GI50 (SNB-19): 14.5 µM | GI50 (SNB-75): 13.2 µM | GI50 (U-251): 6.03 µM | GI50 (LOX IMVI): 12.6 µM | GI50 (Malme-3M): 16.6 µM | GI50 (M14): 17.4 µM | GI50 (SK-MEL-2): 16.2 µM | GI50 (SK-MEL-28): 17 µM | GI50 (SK-MEL-5): 16.2 µM | GI50 (UACC-257): 16.2 µM | GI50 (UACC-62): 12.6 µM | GI50 (IGROV-1): 16.2 µM | GI50 (OVCAR-3): 14.5 µM | GI50 (OVCAR-4): 17 µM | GI50 (OVCAR-5): 17.8 µM | GI50 (OVCAR-8): 15.8 µM | GI50 (SK-OV-3): 17.8 µM | GI50 [2]: 18.2 µM | GI50 (A498): 17.4 µM | GI50 (ACHN): 17.8 µM | GI50 (CAKI-1): 15.5 µM | GI50 (RXF 393): 14.8 µM | GI50 (SN12C): 16.2 µM | GI50 (UO-31): 18.2 µM | GI50 (PC-3): 14.5 µM | GI50 (DU-145): 17.8 µM | GI50 (MCF7): 2.88 µM | GI50 [3]: 20.4 µM | GI50 (MDA-MB-231): 11.5 µM | GI50 [4]: 15.1 µM | GI50 (MDA-MB-435): 15.8 µM | GI50 (MDA-N): 17 µM | GI50 (BT-549): 15.5 µM | GI50 (T47D): 16.6 µM | TGI (Leukemia cell): 32.2 µM | TGI (NSCLC): 30.3 µM | TGI [5]: 30.2 µM | TGI [6]: 28.2 µM | TGI [7]: 29.1 µM | TGI [8]: 30.4 µM | TGI [9]: 29.9 µM | TGI [10]: 28.9 µM | TGI [11]: 30.8 µM
